US20230200390A1, “SELECTIVE HERBICIDES BASED ON SUBSTITUTED ISOXAZOLIN CARBOXAMIDES AND MEFENPYR-DIETHYL” (BAYER AKTIENGESELLSCHAFT, priority 2020, published 2023)

Assays:
Type in all cases: in vivo
[1] = tested on: spring wheat, TRZAS Triso; test: Tank-mix; post-emergence: crop damage by herbicide with/without safener mefenpyr-diethyl
Procedure, shortened: (§1)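 Greenhouse-grown spring wheat and barley treated post-emergence at 1–3-leaf stage with herbicide alone or tank-mixed with safener, sprayed at various dosages in 300 l/ha water. Crop injury scored visually 1–3 weeks after treatment as % vs untreated (0 none, 100 complete kill).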

[2] = tested on: spring barley, HORVS Montoya; test: as above
Procedure, shortened: as §1

[3] = tested on: spring wheat, TRZAS Triso; test: Seed treatment with safener; post-emergence herbicide, crop damage; conditions: for HER effect + SAF [%] (crop damage) / Reduction [%] / Reduction [Difference]: mefenpyr-diethyl 0.5 g a.i./kg seed; for HER effect [%] (crop damage, herbicide without safener): no safener
Procedure, shortened: (§2)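 Wheat and barley seeds were coated with safener (g a.i./kg seed) in a slurry prediluted with milk, then sown and grown to BBCH 12. WP herbicides with 1 l/ha MERO in 300 l/ha water were sprayed post-emergence, with untreated-seed plants as reference. Crop damage (%) was scored visually at 10 and 21 DAT.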

[4] = tested on: spring barley, HORVS Montoya; test: as above; conditions: for HER effect + SAF / Reduction [%] / Reduction [Difference]: mefenpyr-diethyl 0.5 g a.i./kg seed
Procedure, shortened: as §2

[5] = HER 1.5 g a.i./ha + mefenpyr-diethyl 50 g a.i./ha, 21 DAT
[6] = HER 6 g a.i./ha + mefenpyr-diethyl 50 g a.i./ha, 21 DAT
[7] = HER 24 g a.i./ha + mefenpyr-diethyl 100 g a.i./ha, 21 DAT
[8] = herbicide alone 1.5 g a.i./ha, 21 DAT
[9] = herbicide alone 6 g a.i./ha, 21 DAT
[10] = herbicide alone 24 g a.i./ha, 21 DAT
[11] = HER 2 g a.i./ha + mefenpyr-diethyl 50 g a.i./ha, 10 DAT
[12] = HER 8 g a.i./ha + mefenpyr-diethyl 50 g a.i./ha, 10 DAT
[13] = HER 32 g a.i./ha + mefenpyr-diethyl 100 g a.i./ha, 10 DAT
[14] = herbicide alone 2 g a.i./ha, 10 DAT
[15] = herbicide alone 8 g a.i./ha, 10 DAT
[16] = HER 2 g a.i./ha post-emergence, 10 DAT
[17] = HER 8 g a.i./ha post-emergence, 10 DAT
[18] = HER 32 g a.i./ha post-emergence, 10 DAT
[19] = herbicide alone 8 g a.i./ha post-emergence, 10 DAT
[20] = herbicide alone 32 g a.i./ha post-emergence, 10 DAT
[21] = HER 6 g a.i./ha + mefenpyr-diethyl 50 g a.i./ha, 10 DAT
[22] = HER 24 g a.i./ha + mefenpyr-diethyl 100 g a.i./ha, 10 DAT
[23] = herbicide alone 6 g a.i./ha, 10 DAT
[24] = herbicide alone 24 g a.i./ha, 10 DAT
[25] = HER 24 g a.i./ha post-emergence, 21 DAT
[26] = HER 1.5 g a.i./ha + mefenpyr-diethyl 50 g a.i./ha, 10 DAT
[27] = HER 32 g a.i./ha + mefenpyr-diethyl 100 g a.i./ha, 21 DAT
[28] = HER 8 g a.i./ha post-emergence, 21 DAT
[29] = HER 32 g a.i./ha post-emergence, 21 DAT
[30] = herbicide alone 32 g a.i./ha post-emergence, 21 DAT
[31] = HER 2 g a.i./ha + mefenpyr-diethyl 50 g a.i./ha, 21 DAT
[32] = HER 2 g a.i./ha post-emergence, 21 DAT

COC(=O)C1(C)CC(NC(=O)C2(C(C)(F)F)CC(c3cc(F)cc(F)c3)=NO2)CO1 (mixture of isomers) [Example 1.94]
HER effect + SAF [1, 5]: 0%
Reduction [%] [1, 5]: 100%
Reduction [Difference] [1, 5]: 20
HER effect + SAF [1, 6]: 0%
Reduction [%] [1, 6]: 100%
Reduction [Difference] [1, 6]: 85
HER effect + SAF [1, 7]: 10%
Reduction [%] [1, 7]: 88%
Reduction [Difference] [1, 7]: 75
HER effect [1, 8]: 20%
HER effect [1, 9]: 85%
HER effect [1, 10]: 85%
HER effect + SAF [2, 11]: 0%
Reduction [%] [2, 11]: 100%
Reduction [Difference] [2, 11]: 30
HER effect + SAF [2, 12]: 30%
Reduction [%] [2, 12]: 67%
Reduction [Difference] [2, 12]: 60
HER effect + SAF [2, 13]: 70%
Reduction [%] [2, 13]: 22%
Reduction [Difference] [2, 13]: 20
HER effect [2, 14]: 30%
HER effect [2, 15]: 90%
HER effect ([2]; herbicide alone 32 g a.i./ha, 10 DAT): 90%
HER effect + SAF [%] (crop damage) ([3]; 21 DAT, HER dose 1.5 g a.i./ha): 0%
Reduction [%] ([3]; 21 DAT, HER dose 1.5 g a.i./ha): 100%
Reduction [Difference] ([3]; 21 DAT, HER dose 1.5 g a.i./ha): 20
HER effect [%] (crop damage, herbicide without safener) ([3]; 21 DAT, HER dose 1.5 g a.i./ha): 20%
HER effect + SAF [%] (crop damage) ([3]; 21 DAT, HER dose 6 g a.i./ha): 10%
Reduction [%] ([3]; 21 DAT, HER dose 6 g a.i./ha): 88%
Reduction [Difference] ([3]; 21 DAT, HER dose 6 g a.i./ha): 75
HER effect [%] (crop damage, herbicide without safener) ([3]; 21 DAT, HER dose 6 g a.i./ha): 85%
HER effect + SAF [%] (crop damage) ([3]; 21 DAT, HER dose 24 g a.i./ha): 20%
Reduction [%] ([3]; 21 DAT, HER dose 24 g a.i./ha): 76%
Reduction [Difference] ([3]; 21 DAT, HER dose 24 g a.i./ha): 65
HER effect [%] (crop damage, herbicide without safener) ([3]; 21 DAT, HER dose 24 g a.i./ha): 85%
HER effect + SAF [4, 16]: 0%
Reduction [%] [4, 16]: 100%
Reduction [Difference] [4, 16]: 30
HER effect + SAF [4, 17]: 20%
Reduction [%] [4, 17]: 78%
Reduction [Difference] [4, 17]: 70
HER effect + SAF [4, 18]: 30%
Reduction [%] [4, 18]: 67%
Reduction [Difference] [4, 18]: 60
HER effect ([4]; herbicide alone 2 g a.i./ha post-emergence, 10 DAT): 30%
HER effect [4, 19]: 90%
HER effect [4, 20]: 90%

CC1(C(=O)NC2CC=C(C(=O)NS(C)(=O)=O)C2)CC(c2cc(F)cc(F)c2)=NO1 (mixture of isomers) [Example 1.61]
HER effect + SAF [1, 21]: 10%
Reduction [%] [1, 21]: 80%
Reduction [Difference] [1, 21]: 40
HER effect + SAF [1, 22]: 20%
Reduction [%] [1, 22]: 60%
Reduction [Difference] [1, 22]: 30
HER effect [1, 23]: 50%
HER effect [1, 24]: 50%
HER effect + SAF [2, 12]: 30%
Reduction [%] [2, 12]: 40%
Reduction [Difference] [2, 12]: 20
HER effect [2, 15]: 50%
HER effect + SAF [%] (crop damage) ([3]; 10 DAT, HER dose 8 g a.i./ha): 10%
Reduction [%] ([3]; 10 DAT, HER dose 8 g a.i./ha): 80%
Reduction [Difference] ([3]; 10 DAT, HER dose 8 g a.i./ha): 40
HER effect [%] (crop damage, herbicide without safener) ([3]; 10 DAT, HER dose 8 g a.i./ha): 50%
HER effect + SAF [4, 17]: 10%
Reduction [%] [4, 17]: 80%
Reduction [Difference] [4, 17]: 40
HER effect + SAF [4, 18]: 20%
Reduction [%] [4, 18]: 67%
Reduction [Difference] [4, 18]: 40
HER effect [4, 19]: 50%
HER effect [4, 20]: 60%

C=CC1(C(=O)NC2C=C(C(=O)OCC#N)OC2)CC(c2cc(F)cc(F)c2)=NO1 (stereo not shown) [Example 1.91]
HER effect + SAF [1, 5]: 0%
Reduction [%] [1, 5]: 100%
Reduction [Difference] [1, 5]: 70
HER effect + SAF [1, 6]: 20%
Reduction [%] [1, 6]: 78%
Reduction [Difference] [1, 6]: 70
HER effect + SAF [1, 7]: 50%
Reduction [%] [1, 7]: 38%
Reduction [Difference] [1, 7]: 30
HER effect [1, 8]: 70%
HER effect [1, 9]: 90%
HER effect [1, 10]: 80%
HER effect + SAF [2, 7]: 10%
Reduction [%] [2, 7]: 67%
Reduction [Difference] [2, 7]: 20
HER effect [2, 10]: 30%
HER effect + SAF [%] (crop damage) ([3]; 21 DAT, HER dose 1.5 g a.i./ha): 10%
Reduction [%] ([3]; 21 DAT, HER dose 1.5 g a.i./ha): 86%
Reduction [Difference] ([3]; 21 DAT, HER dose 1.5 g a.i./ha): 60
HER effect [%] (crop damage, herbicide without safener) ([3]; 21 DAT, HER dose 1.5 g a.i./ha): 70%
HER effect + SAF [%] (crop damage) ([3]; 21 DAT, HER dose 6 g a.i./ha): 20%
Reduction [%] ([3]; 21 DAT, HER dose 6 g a.i./ha): 78%
Reduction [Difference] ([3]; 21 DAT, HER dose 6 g a.i./ha): 70
HER effect [%] (crop damage, herbicide without safener) ([3]; 21 DAT, HER dose 6 g a.i./ha): 90%
HER effect + SAF [%] (crop damage) ([3]; 21 DAT, HER dose 24 g a.i./ha): 10%
Reduction [%] ([3]; 21 DAT, HER dose 24 g a.i./ha): 88%
Reduction [Difference] ([3]; 21 DAT, HER dose 24 g a.i./ha): 70
HER effect [%] (crop damage, herbicide without safener) ([3]; 21 DAT, HER dose 24 g a.i./ha): 80%
HER effect + SAF [4, 25]: 10%
Reduction [%] [4, 25]: 67%
Reduction [Difference] [4, 25]: 20
HER effect ([4]; herbicide alone 24 g a.i./ha post-emergence, 21 DAT): 30%

CC(C)OC(=O)C1CC(NC(=O)C2(C)CC(c3cccc(F)c3)=NO2)CO1 (mixture of isomers) [Example 1.78]
HER effect + SAF [1, 26]: 0%
Reduction [%] [1, 26]: 100%
Reduction [Difference] [1, 26]: 20
HER effect + SAF [1, 21]: 10%
Reduction [%] [1, 21]: 86%
Reduction [Difference] [1, 21]: 60
HER effect + SAF [1, 22]: 30%
Reduction [%] [1, 22]: 57%
Reduction [Difference] [1, 22]: 40
HER effect ([1]; herbicide alone 1.5 g a.i./ha, 10 DAT): 20%
HER effect [1, 23]: 70%
HER effect [1, 24]: 70%
HER effect + SAF [2, 27]: 10%
Reduction [%] [2, 27]: 75%
Reduction [Difference] [2, 27]: 30
HER effect ([2]; herbicide alone 32 g a.i./ha, 21 DAT): 40%
HER effect + SAF [%] (crop damage) ([3]; 10 DAT, HER dose 6 g a.i./ha): 30%
Reduction [%] ([3]; 10 DAT, HER dose 6 g a.i./ha): 57%
Reduction [Difference] ([3]; 10 DAT, HER dose 6 g a.i./ha): 40
HER effect [%] (crop damage, herbicide without safener) ([3]; 10 DAT, HER dose 6 g a.i./ha): 70%
HER effect + SAF [%] (crop damage) ([3]; 10 DAT, HER dose 24 g a.i./ha): 30%
Reduction [%] ([3]; 10 DAT, HER dose 24 g a.i./ha): 57%
Reduction [Difference] ([3]; 10 DAT, HER dose 24 g a.i./ha): 40
HER effect [%] (crop damage, herbicide without safener) ([3]; 10 DAT, HER dose 24 g a.i./ha): 70%
HER effect + SAF [4, 28]: 0%
Reduction [%] [4, 28]: 100%
Reduction [Difference] [4, 28]: 20
HER effect + SAF [4, 29]: 10%
Reduction [%] [4, 29]: 75%
Reduction [Difference] [4, 29]: 30
HER effect ([4]; herbicide alone 8 g a.i./ha post-emergence, 21 DAT): 20%
HER effect [4, 30]: 40%

COCCOC(=O)C1C=CC(NC(=O)C2(C)CC(c3cc(Cl)cc(C#N)c3)=NO2)C1 (stereo not shown) [Example 1.5]
HER effect + SAF [1, 11]: 0%
Reduction [%] [1, 11]: 100%
Reduction [Difference] [1, 11]: 50
HER effect [1, 14]: 50%
HER effect + SAF [2, 31]: 0%
Reduction [%] [2, 31]: 100%
Reduction [Difference] [2, 31]: 20
HER effect ([2]; herbicide alone 2 g a.i./ha, 21 DAT): 20%
HER effect + SAF [%] (crop damage) ([3]; 21 DAT, HER dose 8 g a.i./ha): 10%
Reduction [%] ([3]; 21 DAT, HER dose 8 g a.i./ha): 89%
Reduction [Difference] ([3]; 21 DAT, HER dose 8 g a.i./ha): 80
HER effect [%] (crop damage, herbicide without safener) ([3]; 21 DAT, HER dose 8 g a.i./ha): 90%
HER effect + SAF [%] (crop damage) ([3]; 21 DAT, HER dose 32 g a.i./ha): 30%
Reduction [%] ([3]; 21 DAT, HER dose 32 g a.i./ha): 68%
Reduction [Difference] ([3]; 21 DAT, HER dose 32 g a.i./ha): 65
HER effect [%] (crop damage, herbicide without safener) ([3]; 21 DAT, HER dose 32 g a.i./ha): 95%
HER effect + SAF [4, 32]: 0%
Reduction [%] [4, 32]: 100%
Reduction [Difference] [4, 32]: 20
HER effect + SAF [4, 29]: 60%
Reduction [%] [4, 29]: 25%
Reduction [Difference] [4, 29]: 20
HER effect ([4]; herbicide alone 2 g a.i./ha post-emergence, 21 DAT): 20%
HER effect [4, 30]: 80%
